Experiments:
[1] = Human microsomal stability assay; type: in vitro ADME; details: human liver microsomes 0.5 mg/mL, 37° C., pH 7.4, NADPH regenerating system, 0-30 minutes
Summary of the method: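 Human liver microsomes (0.5 mg/mL) with […] compound in 100 mM potassium phosphate, pH 7.4, 37° C; reaction started with NADPH regenerating system after 10 min preincubation. Parent remaining at 0–30 min quantified by LC-MS/MS; clearance binned low (<7.0), medium (7.0-16.2) or high (16.2-23.2) mL/min/kg.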

human TLR9 = target: T1, human TLR9 (Homo sapiens, UniProt Q9NR96); assay: HEK293-Blue-hTLR-9 cells assay; type: cell-based; details: HEK293-Blue-hTLR9 cells, ODN2006 stimulation, 20 hrs, SEAP reporter; read-out: HEK/hTLR9 IC50
T1 sequence (Q9NR96 26-1032): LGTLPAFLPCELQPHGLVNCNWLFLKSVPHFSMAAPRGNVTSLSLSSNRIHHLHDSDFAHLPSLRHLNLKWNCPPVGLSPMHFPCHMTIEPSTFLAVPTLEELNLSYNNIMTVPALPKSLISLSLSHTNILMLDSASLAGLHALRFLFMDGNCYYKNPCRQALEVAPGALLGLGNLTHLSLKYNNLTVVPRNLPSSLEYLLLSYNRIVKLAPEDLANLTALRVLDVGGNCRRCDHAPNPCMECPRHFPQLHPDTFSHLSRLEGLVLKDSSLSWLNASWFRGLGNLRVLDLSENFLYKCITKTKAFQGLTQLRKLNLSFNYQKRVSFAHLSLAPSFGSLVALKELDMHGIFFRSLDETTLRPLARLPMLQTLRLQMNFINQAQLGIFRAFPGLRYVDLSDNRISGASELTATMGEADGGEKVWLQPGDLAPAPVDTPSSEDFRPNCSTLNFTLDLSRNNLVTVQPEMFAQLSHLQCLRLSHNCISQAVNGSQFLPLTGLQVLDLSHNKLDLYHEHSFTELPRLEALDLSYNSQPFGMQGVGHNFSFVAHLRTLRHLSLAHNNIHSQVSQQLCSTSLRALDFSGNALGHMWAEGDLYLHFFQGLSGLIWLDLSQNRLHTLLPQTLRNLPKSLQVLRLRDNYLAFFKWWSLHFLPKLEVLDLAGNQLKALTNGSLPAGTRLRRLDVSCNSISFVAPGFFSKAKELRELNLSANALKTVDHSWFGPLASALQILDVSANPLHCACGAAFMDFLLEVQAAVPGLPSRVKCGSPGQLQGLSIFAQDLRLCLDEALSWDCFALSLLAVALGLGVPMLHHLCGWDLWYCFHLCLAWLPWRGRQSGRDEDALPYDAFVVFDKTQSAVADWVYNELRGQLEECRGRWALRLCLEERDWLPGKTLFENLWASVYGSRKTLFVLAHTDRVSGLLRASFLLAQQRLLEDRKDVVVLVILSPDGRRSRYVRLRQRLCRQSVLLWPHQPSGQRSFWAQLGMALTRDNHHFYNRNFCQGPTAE
Summary of the method: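 Antagonist mode in HEK293-Blue hTLR9 reporter cells (SEAP under NF-κB/AP-1 sites), stimulated with ODN2006 added from a 20 uM solution. Serially diluted compound (1% DMSO final) was incubated 20 hrs at 37° C. Supernatant SEAP was developed with QUANTI-Blue for 2 h at 37° C and read at 620˜655 nm.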

Structure (SMILES)	CL (h) [1] [mL/min/kg]	IC50 (human TLR9) [nM]
C[C@@H]1CN(c2ccc(C#N)c3ncccc23)C[C@@H]2c3ccc(N4CCOC[C@@H](N)C4)cc3CN12 [Example 54B, 5-[(4R,10bS)-8-[(6S)-6-amino-1,4-oxazepan-4-yl]-4-methyl-3,4,6,10b-tetrahydro-1H-pyrazino[2,1-a]isoindol-2-yl]quinoline-8-carbonitrile]	7.0	87.3
[2H]c1ccc2c(N3C[C@@H](C)N4Cc5cc(N6CC7CNCC(C6)O7)ccc5[C@H]4C3)ccc(C#N)c2n1 [Example 93, 5-[(4R,10bS)-4-methyl-8-(9-oxa-3,7-diazabicyclo[3.3.1]nonan-3-yl)-3,4,6,10b-tetrahydro-1H-pyrazino[2,1-a]isoindol-2-yl]-2-deuterio-quinoline-8-carbonitrile]	8.4	69.9
C[C@@H]1CN(c2ccc(C#N)n3ncc(F)c23)C[C@@H]2c3ccc(N4C[C@H](N)[C@@](C)(O)C4)cc3CN12 [Example 112, 4-[(4R,10bS)-8-[(3S,4S)-4-amino-3-hydroxy-3-methyl-pyrrolidin-1-yl]-4-methyl-3,4,6,10b-tetrahydro-1H-pyrazino[2,1-a]isoindol-2-yl]-3-fluoro-pyrazolo[1,5-a]pyridine-7-carbonitrile]	8.6	227

Further molecules by falling IC50 (human TLR9), results first:

CL (h) [1] [mL/min/kg]	IC50 (human TLR9) [nM]	Structure (SMILES)
6.2	193	C[C@@H]1CN(c2ccc(C#N)n3nccc23)C[C@@H]2c3ccc(N4CC[C@@H](N)C4)cc3CN12 [Example 96, 4-[(4R,10bS)-8-[(3R)-3-aminopyrrolidin-1-yl]-4-methyl-3,4,6,10b-tetrahydro-1H-pyrazino[2,1-a]isoindol-2-yl]pyrazolo[1,5-a]pyridine-7-carbonitrile]
6.4	148	[2H]c1ccc2c(N3C[C@@H](C)N4Cc5cc(N6CC(C)(N)C6)ccc5[C@H]4C3)ccc(C#N)c2n1 [Example 92, 5-[(4R,10bS)-8-(3-amino-3-methyl-azetidin-1-yl)-4-methyl-3,4,6,10b-tetrahydro-1H-pyrazino[2,1-a]isoindol-2-yl]-2-deuterio-quinoline-8-carbonitrile]
7.0	90.3	CO[C@@H]1CN(c2ccc3c(c2)CN2[C@H](C)CN(c4ccc(C#N)n5nccc45)C[C@H]32)CC[C@H]1N [Example 104, 4-[(4R,10bS)-8-[(3R,4R)-4-amino-3-methoxy-1-piperidyl]-4-methyl-3,4,6,10b-tetrahydro-1H-pyrazino[2,1-a]isoindol-2-yl]pyrazolo[1,5-a]pyridine-7-carbonitrile]

Reference: patent US12157746B2, “Tetrahydro-1H-pyrazino[2,1-a]isoindolylquinoline compounds for the treatment of autoimmune disease” (F. HOFFMANN-LA ROCHE AG, priority 2018, dated 2024)
